Test results from ChEMBL document CHEMBL1201862, “PubChem BioAssay data set” (2004).
Calls of active or inactive are those of the source.

Key:
Phospholipase A2 = Phospholipase A2 (Homo sapiens, UniProt P04054); assay type: functional;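 note: confirmatory dose-response counterscreen on phospholipase A2, testing hits that came from an ultra-high-throughput screen for ATG4B inhibitors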
Cysteine protease ATG4B = Cysteine protease ATG4B (Homo sapiens, UniProt Q9Y4P1); assay type: functional;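 note: Fluorescence-based dose-response confirmation assay measuring inhibition of ATG4B activity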
Chain of Cysteine protease ATG4B (Q9Y4P1 whole entry, the tested form may be a part): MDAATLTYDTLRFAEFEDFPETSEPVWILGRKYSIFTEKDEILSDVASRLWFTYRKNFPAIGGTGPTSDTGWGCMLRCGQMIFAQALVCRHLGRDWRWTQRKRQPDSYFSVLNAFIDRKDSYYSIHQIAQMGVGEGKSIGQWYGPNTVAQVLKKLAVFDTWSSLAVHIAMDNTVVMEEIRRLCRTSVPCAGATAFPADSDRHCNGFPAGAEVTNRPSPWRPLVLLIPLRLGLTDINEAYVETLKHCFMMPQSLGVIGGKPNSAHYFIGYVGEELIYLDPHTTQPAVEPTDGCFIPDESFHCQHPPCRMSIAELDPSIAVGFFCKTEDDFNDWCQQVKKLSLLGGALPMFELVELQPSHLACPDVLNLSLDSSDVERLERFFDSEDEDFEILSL

[1] = target: T1, Carboxy-terminal domain RNA polymerase II polypeptide A small phosphatase 1 (Homo sapiens, UniProt Q9GZU7); assay: inhibitors of CTDSP1, concentration-response testing, biochemical assay, absorbance-based, actives from ultra-high-throughput screening (AID 540297); assay type: functional
T1 sequence (Q9GZU7 whole entry): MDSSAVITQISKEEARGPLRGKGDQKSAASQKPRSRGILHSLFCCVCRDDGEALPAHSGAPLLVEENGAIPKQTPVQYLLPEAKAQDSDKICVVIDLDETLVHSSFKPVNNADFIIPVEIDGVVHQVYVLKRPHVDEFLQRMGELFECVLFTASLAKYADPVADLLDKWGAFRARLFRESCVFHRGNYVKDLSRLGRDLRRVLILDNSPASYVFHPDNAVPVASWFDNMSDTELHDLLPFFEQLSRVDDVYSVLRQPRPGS

[2] = target: DNA (cytosine-5)-methyltransferase 1 (Homo sapiens, UniProt P26358); assay: DNMT1 methyltransferase inhibitors, confirmation, biochemical, fluorescent molecular beacon (AID 602386); assay type: functional
Chain of DNA (cytosine-5)-methyltransferase 1 (P26358 whole entry): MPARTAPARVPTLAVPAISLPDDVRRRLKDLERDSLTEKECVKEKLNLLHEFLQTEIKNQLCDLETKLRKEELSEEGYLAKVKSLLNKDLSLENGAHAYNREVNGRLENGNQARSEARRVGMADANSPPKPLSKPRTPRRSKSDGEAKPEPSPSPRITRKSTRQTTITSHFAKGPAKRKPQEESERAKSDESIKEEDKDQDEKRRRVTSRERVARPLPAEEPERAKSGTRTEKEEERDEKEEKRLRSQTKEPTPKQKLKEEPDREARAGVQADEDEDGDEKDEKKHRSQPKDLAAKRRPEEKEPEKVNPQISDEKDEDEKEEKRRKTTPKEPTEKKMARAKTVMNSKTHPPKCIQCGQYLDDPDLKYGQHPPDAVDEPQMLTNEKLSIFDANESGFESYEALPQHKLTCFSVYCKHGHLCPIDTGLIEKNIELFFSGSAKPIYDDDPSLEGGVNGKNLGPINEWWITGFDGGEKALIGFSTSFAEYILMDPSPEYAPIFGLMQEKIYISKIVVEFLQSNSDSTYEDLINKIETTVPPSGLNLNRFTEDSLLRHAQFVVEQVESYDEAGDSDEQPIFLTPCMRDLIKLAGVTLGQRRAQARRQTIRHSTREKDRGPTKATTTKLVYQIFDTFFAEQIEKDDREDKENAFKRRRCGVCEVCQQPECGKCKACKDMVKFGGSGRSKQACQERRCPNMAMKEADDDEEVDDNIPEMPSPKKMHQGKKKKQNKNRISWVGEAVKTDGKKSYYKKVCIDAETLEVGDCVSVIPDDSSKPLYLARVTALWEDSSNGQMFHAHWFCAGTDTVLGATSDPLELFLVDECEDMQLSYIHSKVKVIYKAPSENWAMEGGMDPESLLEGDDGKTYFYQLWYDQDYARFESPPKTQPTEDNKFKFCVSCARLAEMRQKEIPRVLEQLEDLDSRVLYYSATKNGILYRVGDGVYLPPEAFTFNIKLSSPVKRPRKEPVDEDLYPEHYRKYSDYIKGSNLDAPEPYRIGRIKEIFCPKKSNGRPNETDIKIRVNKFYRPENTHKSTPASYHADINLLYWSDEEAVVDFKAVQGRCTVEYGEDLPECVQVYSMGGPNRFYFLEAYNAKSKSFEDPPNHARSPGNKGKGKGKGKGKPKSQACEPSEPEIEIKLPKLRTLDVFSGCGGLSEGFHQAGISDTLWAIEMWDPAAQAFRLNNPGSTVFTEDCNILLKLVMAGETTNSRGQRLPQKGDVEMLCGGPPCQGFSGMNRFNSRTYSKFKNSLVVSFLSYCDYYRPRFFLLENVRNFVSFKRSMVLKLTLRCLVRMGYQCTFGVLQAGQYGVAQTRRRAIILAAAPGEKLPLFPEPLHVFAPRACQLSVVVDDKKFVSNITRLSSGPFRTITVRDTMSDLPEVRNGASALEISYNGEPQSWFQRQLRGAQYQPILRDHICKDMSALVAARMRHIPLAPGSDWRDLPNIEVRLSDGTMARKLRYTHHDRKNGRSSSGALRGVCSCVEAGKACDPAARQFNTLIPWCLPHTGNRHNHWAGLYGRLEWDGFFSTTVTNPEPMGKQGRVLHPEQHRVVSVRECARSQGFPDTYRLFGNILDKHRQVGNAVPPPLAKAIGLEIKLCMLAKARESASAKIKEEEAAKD

DNA topoisomerase = DNA topoisomerase (Yersinia pestis, UniProt A0A2S9PM60); assay: Y. pestis Topo-I inhibitors, cleavage product readout, dose response, biochemical, cherry-pick (AID 588525)
Chain of DNA topoisomerase (A0A2S9PM60 whole entry): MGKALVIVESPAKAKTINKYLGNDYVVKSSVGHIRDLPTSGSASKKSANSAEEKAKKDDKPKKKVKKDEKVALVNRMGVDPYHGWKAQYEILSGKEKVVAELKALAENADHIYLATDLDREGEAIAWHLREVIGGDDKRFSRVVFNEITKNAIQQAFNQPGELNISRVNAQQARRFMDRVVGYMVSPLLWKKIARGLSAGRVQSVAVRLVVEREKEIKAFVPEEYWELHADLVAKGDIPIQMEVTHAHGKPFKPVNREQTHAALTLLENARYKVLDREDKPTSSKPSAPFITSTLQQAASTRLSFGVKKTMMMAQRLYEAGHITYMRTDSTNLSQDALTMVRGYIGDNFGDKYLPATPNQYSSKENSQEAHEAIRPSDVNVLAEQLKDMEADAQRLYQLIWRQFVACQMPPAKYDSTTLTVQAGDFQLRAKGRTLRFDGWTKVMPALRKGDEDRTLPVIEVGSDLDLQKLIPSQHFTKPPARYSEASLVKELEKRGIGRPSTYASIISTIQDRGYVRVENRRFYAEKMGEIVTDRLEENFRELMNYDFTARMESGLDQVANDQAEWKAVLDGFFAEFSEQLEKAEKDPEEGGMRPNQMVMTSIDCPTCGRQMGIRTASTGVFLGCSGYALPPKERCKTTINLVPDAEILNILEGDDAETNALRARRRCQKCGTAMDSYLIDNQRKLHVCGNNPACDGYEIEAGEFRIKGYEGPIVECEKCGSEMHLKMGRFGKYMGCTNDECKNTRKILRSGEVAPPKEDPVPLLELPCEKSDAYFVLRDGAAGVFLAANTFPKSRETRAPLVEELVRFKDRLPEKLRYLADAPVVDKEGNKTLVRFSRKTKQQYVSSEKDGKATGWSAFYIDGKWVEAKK

[3] = target: Low molecular weight phosphotyrosine protein phosphatase (Homo sapiens, UniProt P24666); assay type: functional; settings: read-out: IC50_Mean;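 note: Dose-response confirmation assay measuring inhibition of LMPTP enzyme activity by fluorescence intensity read-out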
Chain of Low molecular weight phosphotyrosine protein phosphatase (P24666 whole entry): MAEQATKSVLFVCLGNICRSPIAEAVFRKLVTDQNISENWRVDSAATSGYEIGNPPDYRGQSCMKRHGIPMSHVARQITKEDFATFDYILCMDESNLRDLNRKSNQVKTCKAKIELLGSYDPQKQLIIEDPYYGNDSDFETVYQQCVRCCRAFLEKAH

[4] = cytotoxicity in NIH3T3 fibroblasts, dose response, cytotoxicity control for HSP40 inhibitor project, cell-based, CellTiter-Glo luminescence, cherry-pick, set 2 (AID 624265); assay type: functional
[5] = Luminescence Cell-Based Dose Retest to Confirm Inhibitors of Cancer Stem Cells. [Related pubchem assays (depositor defined):AID2717, AID2721]; assay type: functional; settings: Homo sapiens
A-375 [6] = assay: A375 melanoma cell viability reduction, dose response, counter-screen for MITF modulator project, cherry-pick samples, set 2 (AID 540335); assay type: functional, cell-based; settings: Homo sapiens
[7] = target: T2, Microphthalmia-associated transcription factor (Homo sapiens, UniProt O75030); assay: TRPM1 promoter luciferase signal decrease, dose response, MITF inhibitor project, cell-based, SK-MEL-5, cherry-picked, set 3 (AID 493073); assay type: functional
T2 sequence (O75030 whole entry): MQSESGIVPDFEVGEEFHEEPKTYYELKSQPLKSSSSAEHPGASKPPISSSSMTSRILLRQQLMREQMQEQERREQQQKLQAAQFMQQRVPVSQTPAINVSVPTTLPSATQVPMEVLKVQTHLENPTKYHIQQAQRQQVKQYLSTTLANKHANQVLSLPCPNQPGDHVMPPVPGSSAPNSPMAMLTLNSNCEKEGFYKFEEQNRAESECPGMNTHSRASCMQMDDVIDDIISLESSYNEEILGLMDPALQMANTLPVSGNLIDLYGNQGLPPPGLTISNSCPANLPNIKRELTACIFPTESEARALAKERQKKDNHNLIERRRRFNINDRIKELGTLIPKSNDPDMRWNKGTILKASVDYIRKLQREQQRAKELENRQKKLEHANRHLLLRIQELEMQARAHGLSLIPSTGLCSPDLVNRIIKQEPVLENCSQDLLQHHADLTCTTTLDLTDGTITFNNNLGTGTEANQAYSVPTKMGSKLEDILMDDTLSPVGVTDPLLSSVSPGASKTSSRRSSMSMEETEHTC

[8] = target: T3, Heat shock factor protein 1 (Mus musculus, UniProt P38532); assay: inhibition of MG132-induced HSE-luciferase signal, confirmation, cell-based, NIH3T3, luminescence, dose retest (AID 2382); assay type: functional;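 note: NIH3T3 fibroblasts with HSF1-driven luciferase reporter stressed by proteasome inhibitor MG132; luminescence from HSF1-driven luciferase expression after 8 hours of MG132 stress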
T3 sequence (P38532 whole entry): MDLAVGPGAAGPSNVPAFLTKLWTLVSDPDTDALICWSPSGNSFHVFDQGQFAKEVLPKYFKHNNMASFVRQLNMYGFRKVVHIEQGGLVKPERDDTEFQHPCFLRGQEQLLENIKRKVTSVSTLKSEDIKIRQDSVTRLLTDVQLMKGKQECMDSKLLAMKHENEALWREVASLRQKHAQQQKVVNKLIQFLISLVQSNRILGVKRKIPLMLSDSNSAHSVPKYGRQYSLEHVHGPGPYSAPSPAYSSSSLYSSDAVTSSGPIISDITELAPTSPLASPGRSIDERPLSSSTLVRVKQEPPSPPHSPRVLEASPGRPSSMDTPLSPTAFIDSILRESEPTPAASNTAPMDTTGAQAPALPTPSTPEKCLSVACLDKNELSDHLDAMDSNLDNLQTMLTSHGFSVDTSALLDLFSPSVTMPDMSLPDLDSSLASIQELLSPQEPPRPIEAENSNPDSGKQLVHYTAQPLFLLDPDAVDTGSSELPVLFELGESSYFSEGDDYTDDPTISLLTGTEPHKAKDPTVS

A-375 [9] = assay: MITF: Counter assay: A375 proliferation Measured in Cell-Based System Using Plate Reader - 2084-03_Inhibitor_Dose_DryPowder_Activity. [Related pubchem assays (depositor defined):AID488944]; assay type: functional; settings: Homo sapiens
Melanocortin receptor 4 = Melanocortin receptor 4 (Homo sapiens, UniProt P32245); assay type: functional, cell-based;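 note: Cell-based assay with luminescence read-out, confirmatory dose-response testing for agonist activity of biased ligands at MC4R; human U2OS cells with tagged receptor and beta-arrestin; potency of agonists that increase receptor coupling to beta-arrestin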
Chain of Melanocortin receptor 4 (P32245 whole entry, the tested form may be a part): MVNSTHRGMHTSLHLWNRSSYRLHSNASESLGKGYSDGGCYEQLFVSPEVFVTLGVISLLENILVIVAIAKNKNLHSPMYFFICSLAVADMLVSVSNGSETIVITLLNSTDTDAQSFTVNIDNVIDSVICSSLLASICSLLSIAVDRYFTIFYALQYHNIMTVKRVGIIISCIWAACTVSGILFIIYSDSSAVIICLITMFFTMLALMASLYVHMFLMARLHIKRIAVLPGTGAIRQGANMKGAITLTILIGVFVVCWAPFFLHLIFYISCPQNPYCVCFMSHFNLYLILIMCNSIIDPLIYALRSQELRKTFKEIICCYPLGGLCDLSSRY

[10] = target: T4, Sentrin-specific protease 1 (Homo sapiens, UniProt Q9P0U3); assay: Dose response confirmation of small molecule inhibitors of the catalytic domain of the SUMO protease, SENP1 in a FRET assay.; assay type: functional; settings: read-out: IC50_Mean
T4 sequence (Q9P0U3 whole entry, the tested form may be a part): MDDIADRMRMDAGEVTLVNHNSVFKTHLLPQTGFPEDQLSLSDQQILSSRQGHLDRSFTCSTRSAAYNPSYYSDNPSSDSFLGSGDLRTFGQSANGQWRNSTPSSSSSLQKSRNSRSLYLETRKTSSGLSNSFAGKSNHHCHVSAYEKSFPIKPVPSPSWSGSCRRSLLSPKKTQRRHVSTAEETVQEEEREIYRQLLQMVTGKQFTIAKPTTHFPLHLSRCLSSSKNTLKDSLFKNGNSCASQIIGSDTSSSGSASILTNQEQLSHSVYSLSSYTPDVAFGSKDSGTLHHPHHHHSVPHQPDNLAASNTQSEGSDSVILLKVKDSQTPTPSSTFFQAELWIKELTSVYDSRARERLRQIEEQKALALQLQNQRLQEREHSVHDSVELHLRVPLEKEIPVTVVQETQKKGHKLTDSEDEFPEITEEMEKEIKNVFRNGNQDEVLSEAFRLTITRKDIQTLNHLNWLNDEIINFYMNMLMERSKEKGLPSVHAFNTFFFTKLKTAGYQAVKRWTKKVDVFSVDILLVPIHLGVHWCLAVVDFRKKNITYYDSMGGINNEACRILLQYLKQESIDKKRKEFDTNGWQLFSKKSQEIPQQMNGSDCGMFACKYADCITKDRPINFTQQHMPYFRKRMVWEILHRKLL

[11] = target: T4, Sentrin-specific protease 1; assay: potency of human SENP1 inhibitors, dose response, biochemical, kinetic FRET (AID 651697); assay type: functional; settings: read-out: IC50_Mean
Protein Wnt-3a = Protein Wnt-3a (Mus musculus, UniProt P27467); assay: Wnt3a-driven reporter signaling inhibition, dose response, selectivity assay for Gli-SUFU antagonist project, Wnt-LIGHT cells, luminescence (AID 651570); assay type: functional; settings: read-out: IC50_Mean;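 note: Wnt-LIGHT reporter cells stimulated with conditioned medium from Wnt3a-producing cells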
Chain of Protein Wnt-3a (P27467 whole entry): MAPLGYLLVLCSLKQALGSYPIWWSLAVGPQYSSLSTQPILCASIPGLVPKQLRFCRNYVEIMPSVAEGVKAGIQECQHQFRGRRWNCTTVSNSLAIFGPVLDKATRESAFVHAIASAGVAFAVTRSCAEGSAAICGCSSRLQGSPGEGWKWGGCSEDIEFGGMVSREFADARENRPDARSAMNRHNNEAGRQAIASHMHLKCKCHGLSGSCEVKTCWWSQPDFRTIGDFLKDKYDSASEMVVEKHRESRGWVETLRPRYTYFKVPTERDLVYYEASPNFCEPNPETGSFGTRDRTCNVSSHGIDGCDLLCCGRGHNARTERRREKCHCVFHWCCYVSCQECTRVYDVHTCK

[12] = control 3'UTR Renilla luciferase suppression, dose response, counter-screen for Shn3 inhibitor project, cell-based, Clone20-Shn3RL, cherry-picked (AID 624133); assay type: functional
[13] = HepG2 cell cytotoxicity, dose response, cytotoxicity control for Shn3 inhibitor project, CellTiter-Glo, cherry-picked (AID 624134); assay type: functional, cell-based
[14] = Shn3 3'UTR reporter inhibitors, dose response, cell-based, Clone20 osteoblasts, firefly luciferase, cherry-picked (AID 624132); assay type: functional;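 note: firefly luciferase luminescence from reporter carrying the Shn3 3'UTR in osteoblasts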

Chain of Phospholipase A2 (P04054 whole entry): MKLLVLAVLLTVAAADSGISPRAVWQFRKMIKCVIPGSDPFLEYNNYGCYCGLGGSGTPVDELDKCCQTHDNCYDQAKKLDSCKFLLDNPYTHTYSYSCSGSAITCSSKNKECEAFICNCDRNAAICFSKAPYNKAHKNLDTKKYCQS

Question: For `COc1ccc(OC)c(-c2cc(C(=O)N3CCCc4ccccc43)no2)c1`, which IC50 (Phospholipase A2) is on record?
Answer: 14.8 µM (active)

Question: And the IC50 (Cysteine protease ATG4B)?
Answer: 20.1 µM (inactive)

Question: For `Cc1ccc(C(=O)NN2CC(=O)C(c3nc(-c4cccc([N+](=O)[O-])c4)cs3)=C2N)cc1`, which IC50 [1] is on record?
Answer: 4.06 µM (active)

Question: What about the IC50 [2] of the same compound?
Answer: > 99 µM (inactive)

Question: Which AC50 (DNA topoisomerase) does the source give for `Oc1nnc(Cc2ccc(-c3ccc(Cl)cc3)o2)c2ccccc12` here?
Answer: 9.08 µM (active)

Question: With `O=C(COc1ccc2c(-c3ccccc3)cc(=O)oc2c1)Nc1ccc(CCO)cc1` as the compound, how does the IC50 [3] read?
Answer: 40.7 µM (inactive)

Question: For `COc1ccc(-c2oc3ccccc3c2C#Cc2cncn2C)cc1`, which AbsAC35_uM [4] is on record?
Answer: 54.48 µM

Question: What about the AC50 [5] of the same compound?
Answer: 2.05 µM (active)

Question: For `C=CCNC1=NN=C(c2ccc3c(c2)OCCO3)CS1`, which AC50 (A-375 [6]) is on record?
Answer: 48.9 µM (active)

Question: And the AC50 [7]?
Answer: 3.37 µM (active)

Question: What about the EC50 [8] of the same compound?
Answer: 5.84 µM (active)

Question: With `S=C(NCc1ccccc1)Nc1cccc(Cl)c1` as the compound, how does the IC50 (Phospholipase A2) read?
Answer: 8.8 µM (active)

Question: And the IC50 (Cysteine protease ATG4B)?
Answer: 13.3 µM (active)

Question: With `O=[N+]([O-])c1ccc(S(=O)(=O)CC(CN2CCCCC2)N2CCCCC2)cc1` (stereo not drawn) as the compound, how does the AC50 (A-375 [9]) read?
Answer: 19.9 µM (active)

Question: And the AC50 [7]?
Answer: 4.88 µM (active)

Question: What about the AC50 [5] of the same compound?
Answer: 2.17 µM (active)

Question: With `COc1ccc(-c2ccc3c(c2)S(=O)(=O)c2cccc(C(=O)NCc4cc(C)oc4C(F)(F)F)c2C3=O)cc1OC` as the compound, how does the EC50 (Melanocortin receptor 4) read?
Answer: > 89.2 µM (inactive)

Question: What about the IC50 [10] of the same compound?
Answer: 13.3 µM (active)

Question: What about the IC50 [11] of the same compound?
Answer: 15.8 µM (active)

Question: For `CN(Cc1ccc(OC(F)F)cc1)C(=O)c1cccc(S(=O)(=O)N2CCN(Cc3ccccc3)CC2)c1`, which IC50 (Protein Wnt-3a) is on record?
Answer: 6.19 µM (active)

Question: What about the AC50 [12] of the same compound?
Answer: 2.94 µM (active)

Question: What about the AC50 [13] of the same compound?
Answer: 57.2 µM (active)

Question: And the AC50 [14]?
Answer: 2.37 µM (active)
